Two compounds from US8399459B2, “1,4 oxazines as BACE1 and/or BACE2 inhibitors” (Hoffmann-La Roche Inc., priority 2011, dated 2013) can be followed below.

In series [1] the target is T1, recombinant human cathepsin E (Homo sapiens, UniProt P14091).
T1 construct: purchased R&D Systems
T1 sequence (P14091 54-396): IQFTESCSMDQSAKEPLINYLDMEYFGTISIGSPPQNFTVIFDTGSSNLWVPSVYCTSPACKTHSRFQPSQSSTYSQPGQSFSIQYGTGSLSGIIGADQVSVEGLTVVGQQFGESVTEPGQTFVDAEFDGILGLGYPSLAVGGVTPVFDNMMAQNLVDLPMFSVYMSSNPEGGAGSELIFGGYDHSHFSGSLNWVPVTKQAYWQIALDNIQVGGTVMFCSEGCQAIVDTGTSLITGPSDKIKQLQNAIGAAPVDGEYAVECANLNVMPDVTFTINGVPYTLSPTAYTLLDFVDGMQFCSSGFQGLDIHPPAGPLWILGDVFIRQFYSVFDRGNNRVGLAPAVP
The series is described as follows: Cathepsin E fluorescent substrate kinetic assay. The format is biochemical. To be noted: pH 4.5, substrate MR121-[…]. The source says: Cathepsin D and Cathepsin E Fluorescent Substrate Kinetic Assays
The MR121 fluorescence assays described below are based on the fact that MR121 forms a non-fluorescent ground state complex with tryptophan. In solution this formation occurs at millimolar concentrations of tryptophan. The mechanism can be used to design a generic biochemical assay for proteases. A substrate peptide is labeled at the N-terminus with tryptophan and at the C-terminus with the fluorophore MR121 (for cathepsin D the 10 amino acid peptide […]-MR121 was used; for cathepsin E, MR121-[…] was used). In absence of protease activity, the substrates remain intact and the MR121 fluorescence is reduced by the high local Trp-concentration. If the substrates are cleaved by the enzymes the MR121 fluorescence is recovered.
The fluorescent substrate cathepsin D and cathepsin E kinetic assays were performed at room temperature in 384-well microtiter plates (black with clear flat bottom, non binding surface plates from Corning) in a final volume of 51 μl. […] The enzymatic reaction was followed in a plate: vision reader (Perkin Elmer) (excitation wavelength: 630 nm; emission: 695 nm) for at least 30 minutes in a kinetic measurement detecting an increase of MR121 fluorescence during the reaction time. […]

The target in series [2] is T2, P-gp (human MDR1) (Homo sapiens, UniProt P08183).
T2 construct: host or cells: LLC-PK1 (porcine kidney epithelial cell line)
Put plainly: p-gp (P-glycoprotein) assay, bidirectional transcellular transport in LLC-PK1 and L-MDR1 cells. The format is in vitro ADME. The following applies: presumably transport efflux ratio (ER). As to the method: p-gp (P-glycoprotein) Assay
Cell Lines and Vesicles Used for Transport Experiments
The LLC-PK1 cell line (ATCC #CL-101) is a porcine kidney epithelial cell line. The MDR1 (Human multidrug resistance protein 1) transfected cell lines were obtained from Dr. A. Schinkel, The Netherlands Cancer Institute (Amsterdam, The Netherlands). All cell lines were cultured on permeable inserts (Costar, 0.33 cm^2 area, pore size 3.0 μm, low density) at 4.5·10^5 cells/cm^2. Transport measurements were performed at day 4 after seeding. Tightness of the cell monolayer was controlled via the permeability of the extracellular marker lucifer yellow (10 μM). […]
The method used for transport experiments was reported Schwab et al. (see above.). […] Concentrations of substrate in both compartments were determined by scintillation counting (digoxin) or by LC-MS/MS. The extracellular marker (lucifer yellow) was quantified using a spectrafluor plus reader at 430/535 nm (Ex/Em). In each experiment 3 different inserts were used for each condition and a mean was calculated. […]
[formula] where Papp, A, C0, and dQ/dt represent the apparent permeability, the filter surface area, the initial concentration, and the amount transported per time period, respectively. Papp values were calculated on the basis of a single time point (2 h). Transport efflux ratios (ER) were calculated as follows: […]

Each structure is given as a SMILES string.

T2 sequence (P08183 whole entry): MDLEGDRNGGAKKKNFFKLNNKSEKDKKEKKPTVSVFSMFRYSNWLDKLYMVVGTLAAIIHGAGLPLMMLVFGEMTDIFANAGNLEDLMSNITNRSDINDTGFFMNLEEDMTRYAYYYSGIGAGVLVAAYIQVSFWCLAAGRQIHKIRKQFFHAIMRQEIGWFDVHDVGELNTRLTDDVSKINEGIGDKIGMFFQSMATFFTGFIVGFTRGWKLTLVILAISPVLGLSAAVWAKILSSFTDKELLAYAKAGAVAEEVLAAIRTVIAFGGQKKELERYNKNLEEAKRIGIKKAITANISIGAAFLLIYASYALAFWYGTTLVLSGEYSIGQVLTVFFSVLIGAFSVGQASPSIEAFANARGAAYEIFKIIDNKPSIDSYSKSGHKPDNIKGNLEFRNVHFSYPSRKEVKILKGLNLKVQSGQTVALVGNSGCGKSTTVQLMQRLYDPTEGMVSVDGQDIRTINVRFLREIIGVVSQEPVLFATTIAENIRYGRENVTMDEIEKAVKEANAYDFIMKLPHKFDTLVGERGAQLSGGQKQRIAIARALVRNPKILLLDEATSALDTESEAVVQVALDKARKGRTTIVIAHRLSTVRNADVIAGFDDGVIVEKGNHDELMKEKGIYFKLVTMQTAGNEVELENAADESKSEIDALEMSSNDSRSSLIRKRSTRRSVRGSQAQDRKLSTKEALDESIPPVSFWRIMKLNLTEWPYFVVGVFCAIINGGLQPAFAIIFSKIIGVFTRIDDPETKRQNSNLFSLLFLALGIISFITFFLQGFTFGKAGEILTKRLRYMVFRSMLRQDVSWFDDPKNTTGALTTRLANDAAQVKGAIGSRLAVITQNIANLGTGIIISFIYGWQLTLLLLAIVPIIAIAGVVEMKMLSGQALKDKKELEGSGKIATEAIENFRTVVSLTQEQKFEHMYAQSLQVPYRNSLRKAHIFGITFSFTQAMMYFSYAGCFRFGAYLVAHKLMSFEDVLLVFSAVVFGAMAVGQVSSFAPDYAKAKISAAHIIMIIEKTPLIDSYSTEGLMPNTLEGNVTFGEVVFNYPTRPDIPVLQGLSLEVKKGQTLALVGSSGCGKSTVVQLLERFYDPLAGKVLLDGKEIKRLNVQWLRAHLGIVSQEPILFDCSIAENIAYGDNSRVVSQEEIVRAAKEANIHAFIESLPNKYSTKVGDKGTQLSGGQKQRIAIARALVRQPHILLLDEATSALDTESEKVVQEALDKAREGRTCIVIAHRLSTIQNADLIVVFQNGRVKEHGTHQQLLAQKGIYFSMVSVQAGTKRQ

For `CC1(c2cccc(-c3cc(Cl)cc(Cl)c3)c2)COCC(N)=N1` (stereo not shown) [Example 32, 5-(3′,5′-Dichloro-biphenyl-3-yl)-5-methyl-5,6-dihydro-2H-[1,4]oxazin-3-ylamine], the IC50 in series [1] was 3.8 µM. The efflux ratio at 2 h in series [2] was 1.1.
As to `CC1(c2cc(-c3cncnc3)ccc2F)COCC(N)=N1` (stereo not shown) [Example 36, 5-(2-Fluoro-5-pyrimidin-5-yl-phenyl)-5-methyl-5,6-dihydro-2H-[1,4]oxazin-3-ylamine], the IC50 in series [1] came out at 13 µM. In series [2], the efflux ratio at 2 h turned out to be 11.

For orientation: IC50 means the concentration that gives 50% inhibition. For orientation: efflux ratio means the permeability from basolateral to apical divided by that in the opposite direction, in the common usage.
